The source of these data is patent US7718781B2, “Hydroxypyridonate and hydroxypyrimidinone chelating agents” (The Regents of the University of California, priority 2001, dated 2010).

Experiment [1] is described as follows: Water proton relaxivity (longitudinal relaxation rate, 20 MHz). In kind it is physicochemical. As for the experimental part: The efficacy of a paramagnetic complex as a possible MRI contrast agent depends on its ability to catalyze the nuclear magnetic relaxation rate of solvent protons (Lauffer, R. B., Chem. Rev., 87, 901 (1987); Tweedle, M. F.; Kumar, K. In Magnetic Resonance Imaging (MRI) Contrast Agents; Clarke, M. I., Sadler, P. J., Eds.; Springer: Berlin, Germany, Vol. 2, p. 1 (1999); Koenig et al., Prog. NMR Spectrosc., 22:487 (1990)). This property, which is measured in terms in relaxivity, r1p, is defined as the enhancement of the water proton longitudinal relaxation rate induced by a 1 mML^−1 solution of the paramagnetic compound at a given temperature and magnetic field strength (Aime et al., Chem. Soc. Rev., 27:19 (1998)).
In an exemplary assay, the longitudinal water proton relaxation rate at 20 MHz are measured (typically with a NMR spectrometer operating at 0.5 T) with a reproducibility of the T1 data to ±0.5%. Equipment for the control of temperature (with an accuracy of ±0.1° C.) during these measurements are employed.
Water proton relaxation measurements were carried out at 20 MHz with a Stelar Spinmaster Spectrometer (Mede, Pv, Italy) on 0.5-2 mM solutions of the Gd(III) complex. Spin-lattice relaxation times T1 were measured by the standard inversion recovery method with typical 90° pulse width of […], 16 experiments of 4 scans. The reproducibility of the data is ±1%. The temperature was controlled by a Stelar VTC-91 air-flow heater equipped with copper-constantan thermocouple (uncertainty ±0.1° C). The 1/T1 nuclear magnetic relaxation dispersion (NMRD) profiles of water protons were measured from 0.00024 to 1.2 T (corresponding to the range 0.01-50 MHz of proton Larmor frequencies) at 15, 25 and 39° C. using 1.5 mM solutions of the complex on the field-cycling Koenig-Brown relaxometer of the University of Torino (Italy). The temperature was controlled by circulating freon from an external bath and measured by a thermometer inserted into the freon close to the sample. The reproducibilities of the measured T1 values were estimated to be ±2%. […]

The nature of experiment [2]: Variable temperature 17O NMR of water transverse relaxation rate (water exchange, q). In kind it is physicochemical. As for the experimental part: The mean residence water lifetime, τm, is generally determined by measuring the transverse ^17O NMR relaxation rate (R2p) at various temperatures. The variable-temperature ^17O NMR measurement is performed using spectrometers which operate at various magnetic field strengths (2.1 and 9.4 T are typically used) equipped with a 5 mm probe. A D2O external lock and solutions containing 2.6% of the ^17O isotope are used. The observed transverse relaxation rates are calculated from the signal width at half-height. […]
A variable temperature ^17O NMR study of the transverse relaxation rate of H2^17O (R2p) of Gd-TREN-1-Me-3,2-HOPO-TAM, Gd-TREN-1-Me-3,2-HOPO-TAM-PEG-2000 and Gd-TREN-1-Me-3,2-HOPO-TAM-PEG-5000 at 2.1 T was carried out. Analysis of the profiles also allows the number of coordinated water molecules, q to be evaluated. […]
The value of τm, was independently obtained by a variable temperature (VT) ^17O NMR measurement of the water nuclear transverse relaxation rate (R2). The data were measured at 2.1 T (90 MHz for the proton and 12 MHz for 170) and pH≈7. The curve was analyzed in terms of the well established equations of Swift-Connick, rearranged in a form suitable for Gd. […]
Variable-temperature ^17O NMR measurements were recorded on a JEOL EX-400 (9.4 T) spectrometer, equipped with a 5 mm probe, by using D20 for external lock of the magnetic field. […]

Experiment [3] has as its target human serum albumin (HSA) (Homo sapiens, UniProt P02768). The experiment can be described thus: Binding to HSA by proton relaxation enhancement (PRE) method. The source says: Biomolecule affinity measurements are generally measured by art-recognized methods. For example, the non-covalent interaction between HSA and the metal complexes containing hydrophobic groups have been thoroughly investigated using the well-established proton relaxation enhancement (PRE) method (Caravan, P. E. et al., Chem. Rev. 1999, 99, 2293) that allows both the binding parameters (Ka) and the relaxivity enhancement of the (Metal complex)-HSA adduct to be determined. In this method, the water proton relaxation rates of solutions containing the metal complex and increasing concentrations of the serum protein are measured. […]
The longitudinal relaxation rate (R1) of water protons in a […] solution of Gd-TREN-1-Me-3,2-HOPO-TAM-PEG-5000 was measured with increasing concentrations of HSA (FIG. 19) at 20 MHz and 25° C. […]
An objective of synthesizing the Bn and MOB chelates was to investigate their interaction with HSA. The non-covalent interaction between HSA and the Gd complexes was investigated using the well-established proton relaxation enhancement (PRE) method that allows both the binding parameters (KA) and the relaxivity enhancement of the (Gd^3+ complex)-HSA adduct to be determined. In this method, the water proton longitudinal relaxation rates (R1) of solutions containing the Gd complex and increasing concentrations of the serum protein are measured.

Sequence of human serum albumin (HSA) (P02768 25-609): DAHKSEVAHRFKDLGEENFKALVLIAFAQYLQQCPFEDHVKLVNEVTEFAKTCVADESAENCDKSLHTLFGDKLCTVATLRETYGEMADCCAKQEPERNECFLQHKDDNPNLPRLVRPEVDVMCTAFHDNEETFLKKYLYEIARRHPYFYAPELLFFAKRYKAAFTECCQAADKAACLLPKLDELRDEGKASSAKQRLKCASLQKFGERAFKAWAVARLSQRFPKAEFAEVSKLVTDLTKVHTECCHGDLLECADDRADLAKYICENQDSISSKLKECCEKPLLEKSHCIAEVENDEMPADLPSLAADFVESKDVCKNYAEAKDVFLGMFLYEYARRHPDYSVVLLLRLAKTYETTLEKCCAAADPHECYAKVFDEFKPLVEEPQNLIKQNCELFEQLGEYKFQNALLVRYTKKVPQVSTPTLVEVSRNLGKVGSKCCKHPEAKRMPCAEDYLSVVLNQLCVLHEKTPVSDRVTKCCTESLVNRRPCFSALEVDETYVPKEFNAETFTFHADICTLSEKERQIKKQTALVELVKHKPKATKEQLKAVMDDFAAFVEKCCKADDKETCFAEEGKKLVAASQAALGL

With `O=C([O-])CN(CCN(CC(=O)[O-])CC(=O)O)CCN(CC(=O)[O-])CC(=O)O.[Gd+3]` [Gd-DTPA], in experiment [1], the “r1p/mM^−1s^−1 (20 MHz)” value turned out to be 4.3 mM⁻¹ s⁻¹. Also, the τM/ns in experiment [2] came to 303 ns. Also, the “KA (HSA)/M^−1” value in experiment [3] (HSA) is under 100 M⁻¹. The “r1p^b/mM^−1s^−1 (HSA)” value in experiment [3] (relaxivity of HSA-bound complex) was found to be 4.3 mM⁻¹ s⁻¹.
